Assay results from publication PMC4144957, “Molecular Interaction Mechanism between 2-Mercaptobenzimidazole and Copper-Zinc Superoxide Dismutase” (PLoS ONE, 2014).

Target: T1, Cu/ZnSOD from porcine erythrocytes (Sus scrofa, UniProt P04178)
T1 construct: gene SOD1; native, purchased (Biodee Biotechnology), from porcine erythrocytes; homodimer; human structure 1HL4 used only for docking
Experiment: NBT photoreduction assay
Assay type: biochemical
Conditions: read-out: relative activity (%) at 100 nM MBI

T1 sequence (P04178 2-153): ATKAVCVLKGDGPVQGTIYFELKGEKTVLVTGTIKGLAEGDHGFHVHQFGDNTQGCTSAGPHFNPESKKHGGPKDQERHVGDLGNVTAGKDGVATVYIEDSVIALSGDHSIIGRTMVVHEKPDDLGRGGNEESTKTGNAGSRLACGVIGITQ

With S=c1[nH]c2ccccc2[nH]1 [MBI] as the compound, how does the activity at 0.1 µM read?
The activity at 0.1 µM was 89.3 ± 1.2%.
